Data published in EPA's ToxRefDB 2.

Key:
[1] = system: mouse; settings: Subchronic oral toxicity in rodents, b6c3f1, Gavage/Intubation, dose end: 13 week, group: systemic
[2] = system: rat; settings: Combined chronic toxicity/carcinogenicity, fischer, Oral, Gavage/Intubation, dose end: 103 week, group: systemic
[3] = system: rat; settings: Subchronic oral toxicity in rodents, fischer, Gavage/Intubation, dose end: 13 week, group: systemic
[4] = systemic / in life observation / body weight / body weight
[5] = systemic / in life observation / body weight / body weight + systemic / in life observation / clinical signs / altered breathing rate + …
[6] = systemic / pathology microscopic / liver / cytologic alterations + systemic / pathology microscopic / liver / hyperplasia
[7] = systemic / pathology microscopic / liver / cytologic alterations + systemic / pathology microscopic / liver / hyperplasia + systemic / …
[8] = systemic / in life observation / body weight / body weight + systemic / in life observation / clinical signs / lethargy + systemic / in life…

In the case of `COC(N)=O` [Methyl carbamate], the LEL [1, 4] is reported as 125 mg/kg/day, the NEL [1, 4] is reported as < 125 mg/kg/day and the LOAEL [1, 5] is reported as > 1500 mg/kg/day. The NOAEL [1, 5] was ≥ 1500 mg/kg/day, the LOAEL [2, 6] was 100 mg/kg/day and the NOAEL [2, 6] was < 100 mg/kg/day. For the same compound, the LEL [2, 7] was 100 mg/kg/day, the NEL [2, 7] was < 100 mg/kg/day and the LOAEL [3, 8] was > 800 mg/kg/day. The NEL [3, 8] was 200 mg/kg/day, the NOAEL [3, 8] was ≥ 800 mg/kg/day and the LEL ([3]; systemic / in life observation / body weight / body weight + systemic / in life observation / clinical signs / lethargy + systemic / organ …) was 400 mg/kg/day.
